Test results published in EP4707280A1, “1,4-CINEOLE DERIVATIVE AND INTERMEDIATE THEREOF, HERBICIDE CONTAINING SAID DERIVATIVE AS ACTIVE INGREDIENT, METHOD FOR USING HERBICIDE, AND METHOD FOR PREPARING AGROCHEMICAL COMPOSITION” (HOKKO CHEMICAL INDUSTRY CO., LTD., priority 2023, dated 2024).

Experiments:
Assay type in all cases: in vivo
[1] = tested on: Echinochloa crus-galli; experiment: Test Example 4: herbicidal effect test by stem and leaf treatment in upland field; details: Echinochloa crus-galli; 120 g per 10 ares; sprayed seven days after sowing, upland soil; 14 days after application; read-out: weed inhibition rate
[2] = tested on: Digitaria ciliaris; experiment: Test Example 3: herbicidal effect test by soil application in upland field; details: Digitaria ciliaris, 120 g per 10 ares, sprayed one day after sowing, 14 days after application, read-out: weed inhibition rate
Protocol: (§1) The present test was conducted in duplicate for each chemical concentration group, and the weed inhibition rate (%) was determined 14 days after chemical application using the following formula (Math. 1). [formula]
(§2) Pots with an area of 36 cm^2 were filled with upland soil (alluvial loam), twenty seeds each of weeds of Digitaria ciliaris, Echinochloa crus-galli, Chenopodium album, and Amaranthus viridis were uniformly mixed with the top 1 cm layer of soil and the surface was lightly pressed down. One day after sowing, an emulsifiable concentrate prepared according to Formulation Example 5 using the compound shown below was diluted with water, and the diluted solution was sprayed onto the soil surface at a rate of 100 liters per 10 ares. The amount of the active ingredient to be applied was equivalent to 120 g per 10 ares. Fourteen days after chemical application, the herbicidal effect was evaluated according to the same criteria as in Test Example 1.

[3] = tested on: Echinochloa crus-galli; experiment: as above; details: Echinochloa crus-galli, 120 g per 10 ares, sprayed one day after sowing, 14 days after application, read-out: weed inhibition rate
Protocol: as §1, §2

[4] = tested on: Digitaria ciliaris; experiment: Test Example 4: herbicidal effect test by stem and leaf treatment in upland field; details: Digitaria ciliaris; 120 g per 10 ares; sprayed seven days after sowing, upland soil; 14 days after application; read-out: weed inhibition rate
Protocol: as §1
as §2, with “crus-galli,” for “crus-galli, Chenopodium album,”, “Seven days” for “One day”

[5] = tested on: Echinochloa crus-galli var. formosensis; experiment: Test Example 1: herbicidal effect test by soil application in paddy rice; details: Echinochloa crus-galli, soil, 336 h; 120 g active ingredient per 10 ares; applied immediately after sowing, flooded pots; 14 days after application; read-out: weed inhibition rate
Protocol: Wagner pots with an area of […] were filled with paddy soil, followed by addition of water and incorporation of chemical fertilizer (N:P:K = 16:16:16), after which puddling was performed. After that, seeds of Echinochloa crus-galli var. formosensis, broad-leaved weeds ([…] Monochoria vaginalis), and Scirpus juncoides were sown at a depth of 0 cm to 1 cm, 30 seeds each. Immediately after sowing, the pots were flooded and a water depth of approximately 3 cm was maintained. Subsequent management was conducted in a glass greenhouse. Immediately thereafter, an emulsifiable concentrate prepared according to Formulation Example 5 using the compound shown below was diluted with water, and a specified amount of the diluted solution was applied by dropper. The amount of the active ingredient to be applied was equivalent to 120 g per 10 ares.

[6] = tested on: Echinochloa crus-galli var. formosensis; experiment: Test Example 2: herbicidal effect test by application during growth period of paddy rice; details: Echinochloa crus-galli; 120 g per 10 ares; applied seven days after sowing, flooded pots; 14 days after application; read-out: weed inhibition rate
Protocol: as §1
Wagner pots with an area of […] were filled with paddy soil, followed by addition of water and incorporation of chemical fertilizer (N:P:K = 16:16:16), after which puddling was performed. After that, seeds of Echinochloa crus-galli var. formosensis, broad-leaved weeds (Monochoria vaginalis), and Scirpus juncoides were sown at a depth of 0 cm to 1 cm, 30 seeds each. Immediately after sowing, the pots were flooded and a water depth of approximately 3 cm was maintained. Subsequent management was conducted in a glass greenhouse. Seven days after sowing, an emulsifiable concentrate prepared according to Formulation Example 5 using the compound shown below was diluted with water, and a specified amount of the diluted solution was applied by dropper. The amount of the active ingredient to be applied was equivalent to 120 g per 10 ares. The test was conducted in duplicate for each chemical concentration group, and the herbicidal effect was evaluated 14 days after chemical application using the same criteria as in Test Example 1.

Cc1ccc(COC2CC3(C(C)C)OC2(C)CC3Br)cc1 (stereo not drawn) [1-1345, 5-bromo-1-methyl-2-[(4-methylphenyl)methoxy]-4-isopropyl-7-oxabicyclo[2.2.1]heptane]
≥ 80%: inhibition at 1200 g/ha [1] | inhibition at 1200 g/ha [2] | inhibition at 1200 g/ha [3] | inhibition at 1200 g/ha [4] | pest or weed control at 1200 g/ha [5] | inhibition at 1200 g/ha [6]

CCc1ccccc1COC1CC2(C(C)C)OC1(C)CC2Br (stereo not drawn) [1-1346, 5-bromo-2-[(2-ethylphenyl)methoxy]-1-methyl-4-isopropyl-7-oxabicyclo[2.2.1]heptane]
≥ 80%: inhibition at 1200 g/ha [1] | inhibition at 1200 g/ha [2] | inhibition at 1200 g/ha [3] | inhibition at 1200 g/ha [4] | pest or weed control at 1200 g/ha [5] | inhibition at 1200 g/ha [6]

COc1cccc(COC2CC3(C(C)C)OC2(C)CC3Br)c1 (stereo not drawn) [1-1350, 5-bromo-2-[(3-methoxyphenyl)methoxy]-1-methyl-4-isopropyl-7-oxabicyclo[2.2.1]heptane]
≥ 80%: inhibition at 1200 g/ha [1] | inhibition at 1200 g/ha [2] | inhibition at 1200 g/ha [3] | inhibition at 1200 g/ha [4] | pest or weed control at 1200 g/ha [5] | inhibition at 1200 g/ha [6]

COc1ccc(COC2CC3(C(C)C)OC2(C)CC3Br)cc1 (stereo not drawn) [1-1351, 5-bromo-2-[(4-methoxyphenyl)methoxy]-1-methyl-4-isopropyl-7-oxabicyclo[2.2.1]heptane]
≥ 80%: inhibition at 1200 g/ha [1] | inhibition at 1200 g/ha [2] | inhibition at 1200 g/ha [3] | inhibition at 1200 g/ha [4] | pest or weed control at 1200 g/ha [5] | inhibition at 1200 g/ha [6]

CC(C)C12CC(OCc3ccccc3OC(F)(F)F)C(C)(CC1Br)O2 (stereo not drawn) [1-1352, 5-bromo-1-methyl-4-isopropyl-2-[[2-(trifluoromethoxy)phenyl]methoxy]-7-oxabicyclo[2.2.1]heptane]
≥ 80%: inhibition at 1200 g/ha [1] | inhibition at 1200 g/ha [2] | inhibition at 1200 g/ha [3] | inhibition at 1200 g/ha [4] | pest or weed control at 1200 g/ha [5] | inhibition at 1200 g/ha [6]

CC(C)C12CC(OCc3cccc(F)c3)C(C)(CC1Br)O2 (stereo not drawn) [1-1356, 5-bromo-2-[(3-fluorophenyl)methoxy]-1-methyl-4-isopropyl-7-oxabicyclo[2.2.1]heptane]
≥ 80%: inhibition at 1200 g/ha [1] | inhibition at 1200 g/ha [2] | inhibition at 1200 g/ha [3] | inhibition at 1200 g/ha [4] | pest or weed control at 1200 g/ha [5] | inhibition at 1200 g/ha [6]

CC(C)C12CC(OCc3cccc(Cl)c3)C(C)(CC1Br)O2 (stereo not drawn) [1-1359, 5-bromo-2-[(3-chlorophenyl)methoxy]-1-methyl-4-isopropyl-7-oxabicyclo[2.2.1]heptane]
≥ 80%: inhibition at 1200 g/ha [1] | inhibition at 1200 g/ha [2] | inhibition at 1200 g/ha [3] | inhibition at 1200 g/ha [4] | pest or weed control at 1200 g/ha [5] | inhibition at 1200 g/ha [6]

CC(C)C12CC(OCc3ccc(Cl)cc3)C(C)(CC1Br)O2 (stereo not drawn) [1-1360, 5-bromo-2-[(4-chlorophenyl)methoxy]-1-methyl-4-isopropyl-7-oxabicyclo[2.2.1]heptane]
≥ 80%: inhibition at 1200 g/ha [1] | inhibition at 1200 g/ha [2] | inhibition at 1200 g/ha [3] | inhibition at 1200 g/ha [4] | pest or weed control at 1200 g/ha [5] | inhibition at 1200 g/ha [6]

CC(C)C12CC(OCc3cccc(Br)c3)C(C)(CC1Br)O2 (stereo not drawn) [1-1362, 5-bromo-2-[(3-bromophenyl)methoxy]-1-methyl-4-isopropyl-7-oxabicyclo[2.2.1]heptane]
≥ 80%: inhibition at 1200 g/ha [1] | inhibition at 1200 g/ha [2] | inhibition at 1200 g/ha [3] | inhibition at 1200 g/ha [4] | pest or weed control at 1200 g/ha [5] | inhibition at 1200 g/ha [6]

CC(C)C12CC(OCc3ccc(Br)cc3)C(C)(CC1Br)O2 (stereo not drawn) [1-1363, 5-bromo-2-[(4-bromophenyl)methoxy]-1-methyl-4-isopropyl-7-oxabicyclo[2.2.1]heptane]
≥ 80%: inhibition at 1200 g/ha [1] | inhibition at 1200 g/ha [2] | inhibition at 1200 g/ha [3] | inhibition at 1200 g/ha [4] | pest or weed control at 1200 g/ha [5] | inhibition at 1200 g/ha [6]

CC(C)C12CC(OCc3ccccc3I)C(C)(CC1Br)O2 (stereo not drawn) [1-1364, 5-bromo-2-[(2-iodophenyl)methoxy]-1-methyl-4-isopropyl-7-oxabicyclo[2.2.1]heptane]
≥ 80%: inhibition at 1200 g/ha [1] | inhibition at 1200 g/ha [2] | inhibition at 1200 g/ha [3] | inhibition at 1200 g/ha [4] | pest or weed control at 1200 g/ha [5] | inhibition at 1200 g/ha [6]

CC(C)C12CC(OCc3cccc(I)c3)C(C)(CC1Br)O2 (stereo not drawn) [1-1365, 5-bromo-2-[(3-iodophenyl)methoxy]-1-methyl-4-isopropyl-7-oxabicyclo[2.2.1]heptane]
≥ 80%: inhibition at 1200 g/ha [1] | inhibition at 1200 g/ha [2] | inhibition at 1200 g/ha [3] | inhibition at 1200 g/ha [4] | pest or weed control at 1200 g/ha [5] | inhibition at 1200 g/ha [6]

CC(C)C12CC(OCc3ccccc3C(F)(F)F)C(C)(CC1Br)O2 (stereo not drawn) [1-1367, 5-bromo-1-methyl-4-isopropyl-2-[[2-(trifluoromethyl)phenyl]methoxy]-7-oxabicyclo[2.2.1]heptane]
≥ 80%: inhibition at 1200 g/ha [1] | inhibition at 1200 g/ha [2] | inhibition at 1200 g/ha [3] | inhibition at 1200 g/ha [4] | pest or weed control at 1200 g/ha [5] | inhibition at 1200 g/ha [6]

CC(C)C12CC(OCc3ccccc3C#N)C(C)(CC1Br)O2 (stereo not drawn) [1-1370, 2-[(5-bromo-1-methyl-4-isopropyl-7-oxabicyclo[2.2.1]heptan-2-yl)oxymethyl]benzonitrile]
≥ 80%: inhibition at 1200 g/ha [1] | inhibition at 1200 g/ha [2] | inhibition at 1200 g/ha [3] | inhibition at 1200 g/ha [4] | pest or weed control at 1200 g/ha [5] | inhibition at 1200 g/ha [6]

COC(=O)c1ccccc1COC1CC2(C(C)C)OC1(C)CC2Br (stereo not drawn) [1-1376, methyl 2-[(5-bromo-1-methyl-4-isopropyl-7-oxabicyclo[2.2.1]heptan-2-yl)oxymethyl]benzoate]
≥ 80%: inhibition at 1200 g/ha [1] | inhibition at 1200 g/ha [2] | inhibition at 1200 g/ha [3] | inhibition at 1200 g/ha [4] | pest or weed control at 1200 g/ha [5] | inhibition at 1200 g/ha [6]

CC(C)C12CC(OCc3c(Cl)cccc3Cl)C(C)(CC1Br)O2 (stereo not drawn) [1-1380, 5-bromo-2-[(2,6-dichlorophenyl)methoxy]-1-methyl-4-isopropyl-7-oxabicyclo[2.2.1]heptane]
≥ 80%: inhibition at 1200 g/ha [1] | inhibition at 1200 g/ha [2] | inhibition at 1200 g/ha [3] | inhibition at 1200 g/ha [4] | pest or weed control at 1200 g/ha [5] | inhibition at 1200 g/ha [6]

CC(C)C12CC(OCc3cccc4ccccc34)C(C)(CC1Br)O2 (stereo not drawn) [1-1383, 5-bromo-1-methyl-2-(naphthalen-1-ylmethoxy)-4-isopropyl-7-oxabicyclo[2.2.1]heptane]
≥ 80%: inhibition at 1200 g/ha [1] | inhibition at 1200 g/ha [2] | inhibition at 1200 g/ha [3] | inhibition at 1200 g/ha [4] | pest or weed control at 1200 g/ha [5] | inhibition at 1200 g/ha [6]

CC(C)C12CC(OCc3ccc(Cl)cc3Cl)C(C)(CC1Br)O2 (stereo not drawn) [1-1385, 5-bromo-2-[(2,4-dichlorophenyl)methoxy]-1-methyl-4-isopropyl-7-oxabicyclo[2.2.1]heptane]
≥ 80%: inhibition at 1200 g/ha [1] | inhibition at 1200 g/ha [2] | inhibition at 1200 g/ha [3] | inhibition at 1200 g/ha [4] | pest or weed control at 1200 g/ha [5] | inhibition at 1200 g/ha [6]
